# Where a SMILES comes first, the peptide text is derived from it. Bridges are numbered along the chain shown (N, C = ends). [ ]: non-standard residue; d: D form. The star is where a group is joined. X1 = CC[C@H](C)CCCCC(=O)*; Dab = NCC[C@H](N)C(=O)O
# Legend:
# Format in all cases: cell-based
# [1] = system: Acinetobacter baumannii AB122-D12; experiment: PMB MIC in CAMHB with or without 1% mucin, AB122-D12
# Experimental: Two clinical MDR strains of A. baumannii, isolated from a patient before (AB121-D0) and 12 days after treatment with colistin (AB122-D12), were used during this study ([32]). AB122-D12 carries a 10 amino acid insertion into the pmrB gene, known to confer PMB resistance.
# (§1) PMB MICs of both A. baumannii strains were determined in commercial CAMHB (BioMérieux, Marcy-l’Etoile, France) according to the European Committee on Antimicrobial Susceptibility Testing and Clinical and Laboratory Standards Institute (CLSI) recommendations ([33], [34]). PMB MICs of the two A. baumannii isolates were also determined at least in duplicate in CAMHB supplemented with 1% of mucin.
# [2] = system: Acinetobacter baumannii AB121-D0; experiment: Time-kill experiments and PK/PD modeling, AB121-D0; conditions: for Unbound PMB concentrations at which regrowth was observed in TK: CAMHB + 1% mucin
# Experimental: Bacteria were cultured overnight under shaking (150–170 rpm) in CAMHB at 35°C. The bacterial suspension was then diluted to 1/50 and incubated at 35°C under shaking until an optical density of 0.3 (corresponding to 1.10^8 CFU/ml of bacteria in the exponential growth phase) was achieved. This bacterial suspension was then diluted in order to obtain a starting inoculum at 1.10^6 CFU/mL. TK experiments were performed in CAMHB in the absence and presence of 1% mucin. PMB concentrations varied from 0.5 mg/L to 128 mg/L for AB121-D0 and 8 mg/L to 512 mg/L for AB122-D12. Drug-free CAMHB was used as bacterial growth control for each strain. Tubes were incubated at 35°C under shaking (150–170 rpm), and aliquots were sampled over time at T0h, T1h, T3h, T6h, T10h, T24h, and T30h. Samples were serially diluted in NaCl 0.9% and plated onto Mueller-Hinton agar supplemented with 1% activated charcoal (to prevent PMB carry-over effect). Bacteria were counted after overnight incubation at 35°C. The limit of quantification was fixed based on CLSI guidelines ([38]) and was equal to 400 CFU/ml (i.e. 2.6 log10 CFU/mL). Experiments were conducted in triplicate for both strains.
# Bacterial counts obtained from TK experiments without mucin were first modeled using NONMEM 7.4 (ICON plc, Dublin, Ireland) with the Laplacian algorithm and the M3 method for handling observations below the limit of quantification ([39]). PMB was assumed to be stable over the course of the experiment as previously shown ([40]). A previously described model with hetero-resistance ([41]), that is, two bacterial subpopulations, one susceptible to PMB (S) and one resistant (R), was used to describe the time course of bacterial counts for the two A. baumannii strains (Fig. 1). Different functions were tested to characterize the PMB killing effect (see supplemental material for model building).
# Then, TK data in the presence of mucin were included in the data set and PMB total concentrations were corrected for mucin binding using equation 1, with unbound PMB concentrations driving the antibacterial effect. Random variability between TK experiments (one experiment corresponding to a replicate of a tested concentration) was included to account for the uncertainty associated with each parameter of equation 1 and thus with the estimation of unbound PMB concentration in TK, such as:
# An impact of mucin on PD model parameters was tested on top of PMB binding to mucin with the following equation:
# (4) Pj=θj,1×(1−Mucin)+θj,2×Mucin,
# where Pj was the jth parameter of the PD model, Mucin was a categorical variable either equal to 0 or 1 depending on its absence or presence in TK experiments respectively, θj,1 and θj,2 corresponded to the Pj value in the absence and in the presence of mucin, respectively. […]
# [3] = system: Acinetobacter baumannii AB122-D12; experiment: MIC at the end (T30h) of TK experiments after regrowth, AB122-D12
# Experimental: as §1
# Samples were centrifuged (8 minutes at 8,000 rpm); then, the supernates were removed, and the pellets were stored at −80°C in CAMHB-glycerol 20%. A minimum bacterial density of ~10^5 CFU/mL in samples collected at the end of TK experiments was required for MIC susceptibility testing and sequencing.
# Prior to MIC testing, the isolates were streaked onto a drug-free Mueller-Hinton agar plate and incubated for 24 h.
smiles,measurement,setting,value
"CC[C@H](C)CCCCC(=O)N[C@@H](CCN)C(=O)N[C@H](C(=O)N[C@@H](CCN)C(=O)N[C@H]1CCNC(=O)[C@H]([C@@H](C)O)NC(=O)[C@H](CCN)NC(=O)[C@H](CCN)NC(=O)[C@H](CC(C)C)NC(=O)[C@@H](Cc2ccccc2)NC(=O)[C@H](CCN)NC1=O)[C@@H](C)O [PMB, polymyxin B] (X1-[Dab]T[Dab][Dab][Dab][dF]L[Dab][Dab]T; lactam 4-C)",MICu (corrected by fu),"[1]; CAMHB + 1% mucin, unbound MIC = MIC x fu",628 mg/L
same,MICu ratio in the presence and absence of mucin,[1]; MIC with 1% mucin corrected by fu,20
same,Fold increase of MIC in the presence of 1% mucin compared to CAMHB,[1]; total concentrations,32 fold
same,Fold increase of EmaxR in the presence of mucin,[2]; 1% mucin vs no mucin,1.4 fold
same,Unbound PMB concentrations at which regrowth was observed in TK,[2]; one-third of replicates,≤ 13 mg/L
same,Unbound PMB concentrations at which regrowth was observed in TK,[2]; two-thirds of replicates,≤ 0.5 mg/L
same,PMB concentrations up to which regrowth was observed in TK after initial CFU decay,"[2]; CAMHB without mucin, 30 h",up to 8 mg/L
same,MIC fold-change vs control of respective replicate,"[3]; TK in CAMHB + 1% mucin, PMB 48 mg/L, replicate 2, lpxA Ser224Pro",4
same,MIC fold-change vs control of respective replicate,"[3]; TK in CAMHB + 1% mucin, PMB 135 mg/L, replicate 3, ISAba13 insertion in the promoter of lpxC",8
same,MIC fold-change vs control of respective replicate,"[3]; TK in CAMHB + 1% mucin, PMB 135 mg/L, replicate 4, ISAba13 insertion in the promoter of lpxC",4
same,MIC fold-change vs control of respective replicate,"[3]; TK in CAMHB, PMB 16 mg/L, replicate 1, lpxA Arg258Leu",4
same,MIC fold-change vs control of respective replicate,"[3]; TK in CAMHB, PMB 128 mg/L, replicate 1, lpxA Trp206Arg Thr210Ala",2
same,MIC fold-change vs control of respective replicate,"[3]; TK in CAMHB, PMB 128 mg/L, replicate 2, lpxA Trp206Arg Thr210Ala",0.25
same,Regrowth samples at T30h with ≥fourfold increase in MIC compared with control,"[3]; TK in the absence of mucin, 2/18 samples",11%
same,Regrowth samples at T30h with ≥fourfold increase in MIC compared with control,"[3]; TK in the presence of mucin, 5/26 samples",19%
same,Cases of regrowth associated with an increase in the MIC at T30h,[3]; with and without mucin together,16%
